# Data: PubChem BioAssay AID1117319 (Southern Research Institute, 2015)
# Records with an inconclusive call do not appear.
# Biological target: Virion infectivity factor (Human immunodeficiency virus type 1 group M subtype B (isolate BH10)) + Virion infectivity factor (Human immunodeficiency virus type 1 group M subtype B (isolate BRU/LAI)) + Virion infectivity factor (Human immunodeficiency virus type 1 group M subtype B (isolate PCV12)) + Virion infectivity factor (Human immunodeficiency virus type 1 group M subtype B (isolate HXB2)) + DNA dC->dU-editing enzyme APOBEC-3G (Homo sapiens) (UniProt P69720+P69721+P69722+P69723+Q9HC16)
# Experiment: inhibitors of Vif binding to APOBEC3G peptide, primary screen, biochemical, TR-FRET, GST-Vif 1-94, biotin-A3G peptide, dose response retest (AID 1117319);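 also: Vif residues 1-94 fused to GST binding biotinylated APOBEC3G peptide 110-148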
row,Structure (SMILES),IC50
1,O=C(CN1CCN(c2ccccc2O)CC1)Nc1ccc2c(c1)CCC2,50.8 µM
2,CC1CCC/C(=C\Nc2ccc(O)cc2)C1=O (centres undefined),17.2 µM
3,CCN(CC)c1ccc2c(c1)CCCN2,1.17 µM
4,O=C(Nc1ccccc1N1CCCC1)c1ccc(Br)o1,46.2 µM
5,Cc1ccc(C)n1-c1ccc(C(=O)O)cc1,5.12 µM
6,Cc1ccc(S(=O)(=O)OCC(=O)Nc2ccc(C(=O)O)c(O)c2)cc1,64.1 µM
7,Cc1cc(C(=O)COC(=O)c2cc(O)c3ccccc3c2O)c(C)n1CC1CCCO1 (centres undefined),6.92 µM
8,COc1ccc(Nc2ccc(OC)cc2)cc1,6.72 µM
9,CCN(CC)c1ccc(NC(=O)CCS(=O)(=O)c2ccc(Br)cc2)c(C)c1,5.51 µM
10,O=C(O)/C=C/C(=O)Nc1cccnc1,62.9 µM
11,CC(=C/C(=O)O)/C=C/c1ccc(Cl)o1,27.4 µM
12,CNc1ccc(Br)cc(C(=O)/C=C/c2cccc(OC)c2OC)c1=O,4.1 µM
13,CCN=c1scc(C)n1/N=C/c1ccc(O)c(O)c1O,2.47 µM
14,FC(F)(F)c1cc(-c2ccco2)nc(NCc2ccco2)n1,4.24 µM
15,O=C(CCCCCN1C(=O)CCC1=O)Nc1ccc(Cl)c(C(F)(F)F)c1,3.93 µM
16,Cc1cc(SCC2=NNC(=O)C2)c(Cl)cc1Cl,63.2 µM
17,Cc1sc2ncnc(SCc3ccco3)c2c1C,28.2 µM
18,O=C1NC(=O)N(c2cccc(Cl)c2)C(=O)/C1=C\c1ccc(Sc2nc3ccccc3[nH]2)o1,10.1 µM
19,CCOC(=O)C1(C)NC(c2ccco2)C2C(=O)N(CC)C(=O)C21 (centres undefined),99.2 µM
20,O=c1cc(O)n(-c2ccc(F)cc2)c(=S)[nH]1,51.5 µM
21,NC(=O)c1c(NC(=O)Cc2cccs2)sc2c1CCC2,49.5 µM
22,COc1ccc2nc(-c3ccco3)c(-c3ccco3)nc2c1,0.35 µM
23,Oc1ccc(NCc2cccc(OCc3ccc(F)cc3)c2)cc1,2.37 µM

row,Structure (SMILES),IC50
1,C(=C\c1ccco1)/c1ccc2ccccc2n1,5.09 µM
2,O=[N+]([O-])c1cc(CN2CCOCC2)c2cccnc2c1O,4.07 µM
3,C=C(c1ccc(OCCO)cc1)c1ccc(OCCO)cc1,56.6 µM
4,O=[n+]1c2c(n([O-])c3cc(F)c(F)cc31)CCCC2,5.33 µM
5,COc1ccc(NC(=O)c2cc(-c3ccco3)nc3ccccc23)cc1S(=O)(=O)N1CCOCC1,2.38 µM
6,O=c1cc(CO)oc(C(Nc2ccccn2)c2ccc(F)cc2)c1O (centres undefined),85.7 µM
7,O=C(CCN1C(=O)/C(=C/c2cccs2)SC1=S)NC1=NCCS1,12.3 µM
8,CC(=O)Nc1ccc(N/C=C/C(=O)C(C)(C)C)cc1,40.8 µM
9,O=C(CN1C(=O)NC2(CCCCCCC2)C1=O)NCc1ccc2c(c1)OCO2,99.2 µM
10,O=C(O)c1cc(N2N=C(C(F)(F)F)/C(=C/C=C/c3ccco3)C2=O)ccc1Cl,1.04 µM
11,CC(=O)OCCCNc1cc(Sc2nc3ccccc3s2)c2nonc2c1[N+](=O)[O-],53.1 µM
12,O=C1C(Cl)=C(Oc2ccccc2)C(=O)c2ccccc21,23.6 µM
13,Cc1ccc(C)n1-c1ccc(-c2nnc3n2CCCCC3)s1,8.58 µM
14,CC1C/C(=C/c2ccco2)C(=O)/C(=C/c2ccco2)C1 (centres undefined),1.89 µM
15,CCc1cc2cc(C)cc(C)c2nc1SCC(=O)N1CCN(C(=O)c2ccco2)CC1,12.6 µM
16,CNCc1ccccc1Sc1cc(O)ccc1O,3.46 µM
17,O=C(O)c1ccc(-n2cccc2/C=C2/NC(=O)N(c3cccc(Cl)c3)C2=O)cc1,1.71 µM
18,COCCN=c1scc(-c2cccs2)n1/N=C/c1ccc(O)c(O)c1O,2.37 µM
19,N#C/C=C\Oc1ccc(Cl)cc1N,50.3 µM
20,O=C(/C=C/c1ccco1)N(c1ccccn1)c1ccccn1,3.05 µM
21,COC(=O)c1ccccc1NC(=O)C1CCCC1,0.55 µM
22,CC(=O)N1CCN(c2ccc(NCc3ccc4c(c3)OCO4)cc2)CC1,3.78 µM
23,CCOC(=O)C1=C(COC(=O)/C=C/c2ccco2)NC(=O)NC1C (centres undefined),10.9 µM

row,Structure (SMILES),IC50
1,Cc1cc(Cl)c(S(=O)(=O)NCC2CCCO2)cc1OCC(=O)NC1CCCCC1 (centres undefined),77.1 µM
2,O=C(NC(=S)N1CCCc2ccccc21)c1ccccc1,28.4 µM
3,C=CCSc1nnc(NC(=O)CSc2nnc(C)s2)s1,90.6 µM
4,CCC(=Nc1ccc(N)cc1)C1=C(O)C(C(=O)OC)C(C)(C)CC1=O (centres undefined),2.01 µM
5,CN(C)[C@@H]1C(=O)C(C(N)=O)=C(O)[C@@]2(O)C(=O)C3=C(O)c4c(O)ccc(Cl)c4[C@@](C)(O)C3C[C@@H]12 (some centres undefined),7.02 µM
6,COc1ccc(C(=O)N/N=C/C23CC[C@@H](O)CC2(O)CC[C@@H]2[C@@H]3CCC3(C)C(C4=CC(=O)OC4)CCC23O)cc1 (some centres undefined),86.3 µM
7,O=C(CSc1ccc(Cl)cc1)c1ccco1,10.8 µM
8,Nc1cc(C(=O)O)ccc1N1CCCCC1,15 µM
9,O=C1C(O)CC2c3ccccc3CC3(CCCC3)N12 (centres undefined),50.6 µM
10,O=[N+]([O-])c1c(NCCCO)cc(SCc2ccco2)c2nonc12,4.65 µM
11,CCOC(=O)c1c(C)oc2c1c(C=NCc1ccccn1)c(O)c1ccccc12,1.86 µM
12,O=S(=O)(O)c1cc(O)c2cc(Nc3ccccc3)ccc2c1,2.3 µM
13,CC(=O)N1CCN(c2nc(-c3ccco3)c3c(c2C#N)CC(C)(C)SC3)CC1,25.3 µM
14,COC(=O)Cn1c(CCC(=O)O)ccc1-c1ccccc1,12.5 µM
15,O=c1ccc2c(-c3ccccc3S(=O)(=O)O)c3ccc(O)c(O)c3oc-2c1O,0.34 µM
16,CCN(CC)Cc1cc(O)c(CN(CC)CC)cc1O,10.8 µM
17,Cc1cnc(NC(=O)CSc2nnc(CNc3ccc(F)cc3)n2CC2CCCO2)s1 (centres undefined),53 µM
18,COc1ccc(OC)c(NC(=O)NCc2ccc(F)cc2)c1,58.5 µM
19,CCC(=O)OCCNc1cc(Sc2nc3ccccc3[nH]2)c2nonc2c1[N+](=O)[O-],9.48 µM
20,Cn1nnnc1SCC(=O)NCc1ccco1,42.8 µM
21,Cc1cc(-c2ccco2)n(-c2ccccc2)n1,50.4 µM
22,O=C(CN1C(=O)NC2(CCCCCCC2)C1=O)NCc1cccs1,11.1 µM
23,O=C(N/N=C/C(Br)=C/c1ccccc1)c1cc(-c2ccco2)[nH]n1,5.12 µM

row,Structure (SMILES),IC50
1,O=C(CCS(=O)(=O)c1ccc(Br)cc1)N1CCN(c2ccc(F)cc2)CC1,52.8 µM
2,O=C(O)CCc1ccc(-c2cccs2)n1-c1ccc(C(=O)O)cc1,80.6 µM
3,CC1=C(O)C(=O)C=C2C1=CC=C1C2(C)CCC2(C)C3CC(C)(C(=O)O)CCC3(C)CCC12C (centres undefined),12.2 µM
4,O=c1[nH]nc(CNc2ccc(O)cc2)c2ccccc12,3.45 µM
5,CCOc1cccc(=O)c2c(C)n(-c3ccc(C(=O)O)cc3)c(C)c12,4.49 µM
6,O=C1NC(=O)N(c2ccccc2)C(=O)/C1=C\C=C\c1ccccc1,42 µM
7,CN1C(=O)/C(=C/c2cccn2-c2ccc3ccccc3c2)C(=O)NC1=S,< 8.17 µM
8,COC(=O)c1ccccc1-c1c2ccc(=N)cc-2oc2cc(N)ccc12,13.6 µM
9,O=C(O)c1cc(Nc2cc(Cl)c3nonc3c2[N+](=O)[O-])ccc1O,57.6 µM
10,Cc1cc(C(=O)CSc2nnc(-c3ccco3)o2)c(C)n1Cc1ccco1,1.97 µM
11,Cc1cc(-c2cc(-c3ccc(Cl)cc3)nc(N)c2C#N)co1,12.4 µM
12,O=C(CSc1nc2cc([N+](=O)[O-])ccc2n1-c1ccccc1)NCc1ccc2c(c1)OCO2,46.6 µM
13,c1ccc(CSc2nnc(-c3ccco3)c(-c3ccco3)n2)cc1,6.93 µM
14,Cc1noc(/C=C/c2ccco2)c1S(=O)(=O)N1CCC(C(=O)NCc2ccco2)CC1,1.84 µM
15,CNc1ccc(Br)cc(C(=O)/C=C/c2cc(OC)ccc2OC)c1=O,3.6 µM
16,Cc1ccc(C(=O)C2=C(O)C(=O)N(c3ncccn3)C2c2ccc(F)cc2)o1 (centres undefined),21.8 µM
17,COc1cc(NC(=O)c2cc3nc(C)cc(C)n3n2)c(OC)cc1Cl,92.1 µM
18,O=C(/C(=N/N=C/c1ccc(O)c(O)c1O)c1ccccc1)c1ccccc1,3.15 µM
19,CCCC(=O)N(CCc1ccc(OC)cc1)Cc1nc2ccccc2c(=O)[nH]1,14.4 µM
20,CN1CCc2cccc3c2[C@@H]1Cc1ccc(O)c(O)c1-3,1.66 µM
21,CC1CCCCN1Cc1ccc(N(C)C)cc1 (centres undefined),66.6 µM
22,COc1ccc2cc(C3C(C#N)=C(N)OC(C)=C3C(C)=O)c(Cl)nc2c1 (centres undefined),19.4 µM
23,CS(=O)(=O)N1CCCC(C(=O)NCCCN2CCC(Cc3ccccc3)CC2)C1 (centres undefined),84.4 µM

row,Structure (SMILES),IC50
1,Cn1cccc1/C=C1/C(=O)NC(=O)N(Cc2ccccc2)C1=O,3.33 µM
2,Cc1cc(C)nc(N/N=C/C2=C(N3CCOCC3)C(=C\c3ccc(Cl)cc3)/CC2)n1,13.3 µM
3,CCN(CC)c1ccc(/C=N/n2c(C)cc(C)cc2=O)cc1,1.65 µM
4,Cc1ccc(C2C(C#N)=C(N)Oc3c2oc(CO)cc3=O)o1 (centres undefined),2.04 µM
5,CC(C)CN(C(=O)CN1CCN(c2ccc(O)cc2)CC1)c1c(N)n(CC(C)C)c(=O)[nH]c1=O,12.3 µM
6,CCN1CCN(C2=NC(=O)/C(=C/c3ccc(C)o3)S2)CC1,3.48 µM
7,CCCC(=O)NC1=C(Cl)C(=O)c2ccccc2C1=O,13.1 µM
8,O=C(N/N=C/C=C/c1ccco1)c1ccncc1,2.36 µM
9,Cc1ccc(NC(=O)CN(C)C(=O)c2cccc(-n3cccc3)c2)cc1,4.56 µM
10,CC(C)C(C(=O)O)N1C(=O)/C(=C/C=C/c2ccco2)SC1=S (centres undefined),0.36 µM
11,COc1ccc(C2CC(=O)Nc3cc(C)c(C)cc32)c(OC)c1OC (centres undefined),63.5 µM
12,CN(CC(=O)Nc1cccc(F)c1)C(=O)c1cccc(-n2cccc2)c1,8.08 µM
13,O=C1/C(=C\c2ccco2)NC(=S)N1c1ccccc1,16.4 µM
14,COC(=O)C1=C(C)N(Cc2ccccc2)C(=O)/C1=C\c1ccco1,11.2 µM
15,O=C(CSc1ccccc1)N1CCN(c2ccccc2)CC1,67.4 µM
16,CC1=C(C#N)C(=O)N(C2CCS(=O)(=O)C2)C(=O)/C1=C\c1ccco1 (centres undefined),0.62 µM
17,CN(C)c1ccc(N=C/C=C2/N(C)c3ccccc3C2(C)C)cc1,2.19 µM
18,COC(=O)C1=C(N)OC2=C(C(=O)CCC2)C1c1cccs1 (centres undefined),44.8 µM
19,COCCNC(=O)Nc1ccc2nc(-c3ccco3)c(-c3ccco3)nc2c1,0.25 µM
20,O=C1c2ccccc2C(=O)N1OCCOCCOCCBr,92.3 µM
21,O=C(Nc1ccc(Br)cn1)c1coc(=O)c(Br)c1,13 µM
22,O=C1[C@@H]2C(Cc3ccc(O)cc3)NC3(C(=O)Nc4ccc(F)cc43)[C@@H]2C(=O)N1c1ccc(F)cc1 (some centres undefined),64.5 µM
